# Laboratory results from patent US20250230193A1, “CYCLIC COMPOUND HAVING SELECTIVE KRAS INHIBITORY EFFECT ON HRAS AND NRAS” (CHUGAI SEIYAKU KABUSHIKI KAISHA, priority 2022, published 2025).
# Columns and labels:
# [1] = target: GDP-bound NRAS wild-type protein (Homo sapiens, UniProt P01111); assay: Binding to NRAS by surface plasmon resonance (SPR), Single Cycle Kinetics; conditions: KD ratio NRAS/KRAS, class symbols
# [2] = target: GDP-bound HRAS wild-type protein (Homo sapiens, UniProt P01112); assay: Binding to HRAS by surface plasmon resonance (SPR), Single Cycle Kinetics; conditions: KD ratio HRAS/KRAS, class symbols
# GDP-bound HRAS wild-type protein, sequence (P01112 whole entry): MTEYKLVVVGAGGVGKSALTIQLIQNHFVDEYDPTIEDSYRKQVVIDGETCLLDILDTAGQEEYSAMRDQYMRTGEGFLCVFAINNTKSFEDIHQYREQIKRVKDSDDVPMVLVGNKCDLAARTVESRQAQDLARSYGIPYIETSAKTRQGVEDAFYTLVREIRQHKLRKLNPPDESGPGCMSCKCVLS
# GDP-bound NRAS wild-type protein, sequence (P01111 whole entry): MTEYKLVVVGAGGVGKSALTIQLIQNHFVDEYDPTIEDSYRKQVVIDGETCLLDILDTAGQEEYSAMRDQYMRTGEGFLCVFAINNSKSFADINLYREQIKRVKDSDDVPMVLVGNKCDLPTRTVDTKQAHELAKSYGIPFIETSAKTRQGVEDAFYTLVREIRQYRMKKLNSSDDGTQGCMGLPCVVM
SMILES,NRAS/KRAS (ratio of KD value with respect to GDP-bound NRAS wild-type protein to KD value with respect to KRAS) [1],HRAS/KRAS (ratio of KD value with respect to GDP-bound HRAS wild-type protein to KD value with respect to KRAS) [2]
CCC(CC)[C@H]1C(=O)N(C)[C@H](C(=O)N(C)C)CC(=O)N(C)[C@@H](COC)C(=O)N[C@@H]([C@@H](C)CC)C(=O)N(C)CC(=O)N(C)[C@H]2C/C=C\CCN(C2=O)[C@@H](Cc2ccc(C)cc2)C(=O)N(C)CC(=O)N[C@@H](CCc2ccc(Cl)c(Cl)c2)C(=O)N2C[C@H](OC(C)C)C[C@H]2C(=O)N(C)C2(CC(C)(C)C2)C(=O)N1C [PP2814],AA (a compound having 20 or more is denoted as AA),A (a compound having 10 or more and less than 20 is denoted as A)
CCC[C@H]1C(=O)N[C@@H]([C@@H](C)CC)C(=O)N(C2CC2)CC(=O)N(C)[C@H]2C/C=C\CCN(C2=O)[C@@H](Cc2ccc(C(F)(F)F)cc2)C(=O)N(C)CC(=O)N[C@@H](CCc2ccc(C(F)(F)F)c(OC)c2)C(=O)N2C[C@H](OCC)C[C@H]2C(=O)NC2(CC(C)(C)C2)C(=O)N(C)[C@@H](CC2CC2)C(=O)N(C)[C@H](C(=O)N(C)C)CC(=O)N1C [PP2815],A (a compound having 10 or more and less than 20 is denoted as A),A (a compound having 10 or more and less than 20 is denoted as A)
CCC(CC)[C@H]1C(=O)N(C)[C@H](C(=O)N(C)C)CC(=O)N(C)[C@@H](COC)C(=O)N[C@@H]([C@@H](C)CC)C(=O)N(C)CC(=O)N(C)[C@H]2C/C=C\CCN(C2=O)[C@@H](Cc2ccc(C)cc2)C(=O)N(C)CC(=O)N[C@@H](CCc2ccc(Cl)c(Cl)c2)C(=O)N2C[C@H](OC3CCC3)C[C@H]2C(=O)N(C)C2(CC(C)(C)C2)C(=O)N1C [PP2816],AA (a compound having 20 or more is denoted as AA),A (a compound having 10 or more and less than 20 is denoted as A)
CCC[C@H]1C(=O)N[C@@H]([C@@H](C)CC)C(=O)N(C2CC2)CC(=O)N(C)[C@H]2C/C=C\CCN(C2=O)[C@@H](Cc2ccc(C(F)(F)F)cc2)C(=O)N(C)CC(=O)N[C@@H](CCc2ccc(Cl)c(Cl)c2)C(=O)N2C[C@H](OCC)C[C@H]2C(=O)NC2(CC(C)(C)C2)C(=O)N(C)[C@@H](CC2CC2)C(=O)N(C)[C@H](C(=O)N(C)C)CC(=O)N1C [PP2817],A (a compound having 10 or more and less than 20 is denoted as A),A (a compound having 10 or more and less than 20 is denoted as A)
CCC(CC)[C@H]1C(=O)N(C)[C@H](C(=O)N(C)C)CC(=O)N(C)[C@@H](COC)C(=O)N[C@@H]([C@@H](C)CC)C(=O)N(C)CC(=O)N(C)[C@H]2C/C=C\CCN(C2=O)[C@@H](Cc2ccc(C)cc2)C(=O)N(C)CC(=O)N[C@@H](CCc2ccc(Cl)c(Cl)c2)C(=O)N2C[C@H](OC3CCCC3)C[C@H]2C(=O)N(C)C2(CC(C)(C)C2)C(=O)N1C [PP2818],A (a compound having 10 or more and less than 20 is denoted as A),A (a compound having 10 or more and less than 20 is denoted as A)
CCC[C@H]1C(=O)N[C@@H]([C@@H](C)CC)C(=O)N(C2CC2)CC(=O)N(C)[C@H]2C/C=C\CCN(C2=O)[C@@H](Cc2ccc(C(F)(F)F)cc2)C(=O)N(C)CC(=O)N[C@@H](CCc2ccc(Cl)c(Cl)c2)C(=O)N2C[C@H](OCC)C[C@H]2C(=O)NC2(CC(C)(C)C2)C(=O)N(C)[C@@H](CC2CCC2)C(=O)N(C)[C@H](C(=O)N(C)C)CC(=O)N1C [PP2819],A (a compound having 10 or more and less than 20 is denoted as A),A (a compound having 10 or more and less than 20 is denoted as A)
CCC(CC)[C@H]1C(=O)N(C)[C@H](C(=O)N(C)C)CC(=O)N(C)[C@@H](COC)C(=O)N[C@@H]([C@@H](C)CC)C(=O)N(C)CC(=O)N(C)[C@H]2C/C=C\CCN(C2=O)[C@@H](Cc2ccc(C)cc2)C(=O)N(C)CC(=O)N[C@@H](CCc2ccc(Cl)c(Cl)c2)C(=O)N2CC3(CC3)C[C@H]2C(=O)N(C)C2(CC(C)(C)C2)C(=O)N1C [PP2820],AA (a compound having 20 or more is denoted as AA),A (a compound having 10 or more and less than 20 is denoted as A)
CCO[C@@H]1C[C@H]2C(=O)NC3(CC(C)(C)C3)C(=O)N(C)[C@@H](CC3CCC3)C(=O)N(C)[C@H](C(=O)N(C)C)CC(=O)N(C)[C@@H](COC)C(=O)N[C@@H]([C@@H](C)CC)C(=O)N(C3CC3)CC(=O)N(C)[C@H]3C/C=C\CCN(C3=O)[C@@H](Cc3ccc(C(F)(F)F)cc3)C(=O)N(C)CC(=O)N[C@@H](CCc3ccc(Cl)c(Cl)c3)C(=O)N2C1 [PP2821],A (a compound having 10 or more and less than 20 is denoted as A),A (a compound having 10 or more and less than 20 is denoted as A)
CCO[C@@H]1C[C@H]2C(=O)NC3(CC(C)(C)C3)C(=O)N(C)[C@@H](C3CCCC3)C(=O)N(C)[C@H](C(=O)N(C)CC)CC(=O)N(C)[C@@H](CC)C(=O)N[C@@H]([C@@H](C)CC)C(=O)N(C)CC(=O)N(C)[C@H]3C/C=C\CCN(C3=O)[C@@H](Cc3ccc(C(F)(F)F)cc3)C(=O)N(C)CC(=O)N[C@@H](CCc3ccc(Cl)c(Cl)c3)C(=O)N2C1 [PP2822],A (a compound having 10 or more and less than 20 is denoted as A),A (a compound having 10 or more and less than 20 is denoted as A)
CCO[C@@H]1C[C@H]2C(=O)NC3(CC(C)(C)C3)C(=O)N(C)[C@@H](C3CCCC3)C(=O)N(C)[C@H](C(=O)N(C)CC)CC(=O)N(C)[C@@H](CC)C(=O)N[C@@H]([C@@H](C)CC)C(=O)N(C)CC(=O)N(C)[C@H]3C/C=C\CCN(C3=O)[C@@H](Cc3ccc(C(F)(F)F)cc3)C(=O)N(C)CC(=O)N[C@@H](CCc3ccc(C(F)(F)F)c(Cl)c3)C(=O)N2C1 [PP2823],A (a compound having 10 or more and less than 20 is denoted as A),A (a compound having 10 or more and less than 20 is denoted as A)
CCO[C@@H]1C[C@H]2C(=O)NC3(CCC3)C(=O)N(C)[C@@H](C3CCCC3)C(=O)N(C)[C@H](C(=O)N(C)CC)CC(=O)N(C)[C@@H](CC3CCC3)C(=O)N[C@@H]([C@@H](C)CC)C(=O)N(C)CC(=O)N(C)[C@H]3C/C=C\CCN(C3=O)[C@@H](Cc3ccc(C(F)(F)F)cc3)C(=O)N(C)CC(=O)N[C@@H](CCc3ccc(Cl)c(Cl)c3)C(=O)N2C1 [PP2824],A (a compound having 10 or more and less than 20 is denoted as A),A (a compound having 10 or more and less than 20 is denoted as A)
CCO[C@@H]1C[C@H]2C(=O)NC3(CCC3)C(=O)N(C)[C@@H](C3CCCC3)C(=O)N(C)[C@H](C(=O)N(C)CC)CC(=O)N(C)[C@@H](CC3CCC3)C(=O)N[C@@H]([C@@H](C)CC)C(=O)N(C)CC(=O)N(C)[C@H]3C/C=C\CCN(C3=O)[C@@H](Cc3ccc(C(F)(F)F)cc3)C(=O)N(C)CC(=O)N[C@@H](CCc3ccc(C(F)(F)F)c(OC)c3)C(=O)N2C1 [PP2825],A (a compound having 10 or more and less than 20 is denoted as A),B (a compound having 3 or more and less than 10 is denoted as B)
CCO[C@@H]1C[C@H]2C(=O)NC3(CCC3)C(=O)N(C)[C@@H](C3CCCC3)C(=O)N(C)[C@H](C(=O)N(C)CC)CC(=O)N(C)[C@@H](CC3CCC3)C(=O)N[C@@H]([C@@H](C)CC)C(=O)N(C)CC(=O)N(C)[C@H]3C/C=C\CCN(C3=O)[C@@H](Cc3ccc(C(F)(F)F)cc3)C(=O)N(C)CC(=O)N[C@@H](CCc3ccc(C(F)(F)F)c(Cl)c3)C(=O)N2C1 [PP2826],A (a compound having 10 or more and less than 20 is denoted as A),A (a compound having 10 or more and less than 20 is denoted as A)
CCO[C@@H]1C[C@H]2C(=O)NC3(CC(C)(C)C3)C(=O)N(C)[C@@H](C3CCCC3)C(=O)N(C)[C@H](C(=O)N(C)CC)CC(=O)N(C)[C@@H](CC(C)C)C(=O)N[C@@H]([C@@H](C)CC)C(=O)N(C)CC(=O)N(C)[C@H]3C/C=C\CCN(C3=O)[C@@H](Cc3ccc(C(F)F)cc3)C(=O)N(C)CC(=O)N[C@@H](CCc3ccc(Cl)c(Cl)c3)C(=O)N2C1 [PP2827],A (a compound having 10 or more and less than 20 is denoted as A),B (a compound having 3 or more and less than 10 is denoted as B)
CCO[C@@H]1C[C@H]2C(=O)NC3(CC(C)(C)C3)C(=O)N(C)[C@@H](C3CCCC3)C(=O)N(C)[C@H](C(=O)N(C)CC)CC(=O)N(C)[C@@H](CC(C)C)C(=O)N[C@@H]([C@@H](C)CC)C(=O)N(C)CC(=O)N(C)[C@H]3C/C=C\CCN(C3=O)[C@@H](Cc3ccc(C(F)F)cc3)C(=O)N(C)CC(=O)N[C@@H](CCc3ccc(C(F)(F)F)c(OC)c3)C(=O)N2C1 [PP2828],A (a compound having 10 or more and less than 20 is denoted as A),A (a compound having 10 or more and less than 20 is denoted as A)
